Measured values taken from patent US20220211692A1, “Modulators of the Cystic Fibrosis Transmembrane Conductance Regulator Protein and Methods of Use” (AbbVie Global Enterprises Ltd., priority 2021, published 2022).
Where two headings read alike, the source gives them in different places.

Columns and labels:
F508del/F508del CFTR = molecular target: T1, F508del/F508del CFTR (Homo sapiens, UniProt P13569, DEL508-508); assay: Trans-Epithelial Current Clamp (TECC) assay using primary human bronchial epithelial cells; format: cell-based; conditions: for Emax (% Dual): maximum percent activity relative to positive control (co-corrector 0.15 μM + potentiator 0.45 μM = 100%); for EC50: primary hBE cells F508del/F508del, test corrector with co-corrector and potentiator, 18-24 hours, equivalent CFTR current
T1 construct: cells isolated from CF patients with the homozygous mutation; endogenous in cells; host or cells: primary human bronchial epithelial (hBE) cells from CF patients homozygous for F508del
How it was run: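 F508del/F508del primary hBE cells grown 35 days at air-liquid interface were treated basolaterally with C2 correctors plus fixed co-corrector and potentiator for 18-24 h at 37° C. TECC-24 current clamp at 36.5° C in HEPES-buffered F-12 Coon's, pH 7.4; equivalent current IEQ=VT/RT, plus AUC between forskolin peak and bumetanide.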

F508delCFTR = molecular target: T2, F508delCFTR (Homo sapiens, UniProt P13569, DEL508-508); assay: Cell Surface Expression-Horse Radish Peroxidase (CSE-HRP) assay in CFBE41o-F508delCFTR-HRP cells; format: cell-based; conditions: for EC50: CFBE41o-F508delCFTR-HRP cells, 18-24 hours at 33° C.; for Emax / Maximum % activity (with co-corrector): normalized to on-plate positive control; for Emax: read-out: Maximum % activity (without co-corrector)
T2 construct: expressed in transfected cells; host or cells: CFBE41o- human lung derived epithelial cell line, doxycycline-induced expression
How it was run: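 Doxycycline (0.5 μg/mL) induced HRP-tagged F508delCFTR in CFBE41o- cells for 68-72 h at 37 °C; compounds ± co-corrector (2 μM) then ran 18-24 h at 33 °C, 8-point 3-fold series from 20 or 30 μM. After DPBS washes, surface HRP was read by luminol luminescence. Activity was normalised to the on-plate positive control versus DMSO, and EC50 was fitted by variable-slope sigmoid from triplicate plates.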

[1] = with co-corrector 2 μM, read-out: EC50 (with co-corrector)
[2] = without co-corrector, read-out: EC50 (without co-corrector)

T2 sequence (P13569 with tags, fused parts or gaps DEL508-508): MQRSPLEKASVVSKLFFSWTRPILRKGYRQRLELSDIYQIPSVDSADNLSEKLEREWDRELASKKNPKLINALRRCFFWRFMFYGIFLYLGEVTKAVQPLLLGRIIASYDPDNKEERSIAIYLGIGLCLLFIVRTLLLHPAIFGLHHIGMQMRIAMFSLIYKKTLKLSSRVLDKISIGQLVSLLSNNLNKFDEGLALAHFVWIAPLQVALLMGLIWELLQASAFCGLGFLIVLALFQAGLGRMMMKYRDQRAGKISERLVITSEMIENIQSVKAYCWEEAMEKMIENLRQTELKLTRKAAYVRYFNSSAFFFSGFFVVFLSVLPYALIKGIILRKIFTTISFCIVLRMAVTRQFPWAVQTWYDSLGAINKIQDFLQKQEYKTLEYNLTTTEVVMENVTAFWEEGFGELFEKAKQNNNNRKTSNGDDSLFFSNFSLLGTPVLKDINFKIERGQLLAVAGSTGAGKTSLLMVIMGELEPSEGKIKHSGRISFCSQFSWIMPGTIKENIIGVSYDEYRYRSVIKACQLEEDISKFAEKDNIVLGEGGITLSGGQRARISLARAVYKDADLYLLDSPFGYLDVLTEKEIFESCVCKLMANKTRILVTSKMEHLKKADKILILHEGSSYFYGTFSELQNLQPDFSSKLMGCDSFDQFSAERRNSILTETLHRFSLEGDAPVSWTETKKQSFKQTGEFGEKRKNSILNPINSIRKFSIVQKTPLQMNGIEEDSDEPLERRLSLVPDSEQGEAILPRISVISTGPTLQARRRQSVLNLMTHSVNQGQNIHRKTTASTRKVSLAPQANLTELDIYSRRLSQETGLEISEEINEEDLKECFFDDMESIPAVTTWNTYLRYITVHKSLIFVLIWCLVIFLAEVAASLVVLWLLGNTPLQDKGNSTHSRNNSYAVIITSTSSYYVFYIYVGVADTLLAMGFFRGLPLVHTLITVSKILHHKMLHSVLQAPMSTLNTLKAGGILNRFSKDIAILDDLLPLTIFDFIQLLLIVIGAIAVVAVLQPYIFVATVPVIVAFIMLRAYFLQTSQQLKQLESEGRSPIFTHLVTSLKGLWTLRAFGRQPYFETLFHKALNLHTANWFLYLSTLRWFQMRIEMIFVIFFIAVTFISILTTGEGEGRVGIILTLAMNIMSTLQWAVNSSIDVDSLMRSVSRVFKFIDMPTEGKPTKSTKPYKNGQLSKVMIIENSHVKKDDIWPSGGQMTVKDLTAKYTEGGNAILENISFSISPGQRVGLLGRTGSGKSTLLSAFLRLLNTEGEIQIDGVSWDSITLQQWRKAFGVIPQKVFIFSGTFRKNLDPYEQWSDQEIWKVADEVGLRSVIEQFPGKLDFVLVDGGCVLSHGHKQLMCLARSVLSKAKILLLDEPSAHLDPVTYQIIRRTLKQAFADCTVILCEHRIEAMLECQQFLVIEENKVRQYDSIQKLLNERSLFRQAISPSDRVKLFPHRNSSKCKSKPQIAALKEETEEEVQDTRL
T1 sequence (P13569 with tags, fused parts or gaps DEL508-508): as above

| SMILES | Emax (% Dual) (F508del/F508del CFTR) | EC50 (F508del/F508del CFTR) | EC50 (F508delCFTR; [1]) | EC50 (F508delCFTR; [2]) | Emax (F508delCFTR; without co-corrector) | Maximum % activity (with co-corrector) (F508delCFTR; with co-corrector 2 μM) |
| --- | --- | --- | --- | --- | --- | --- |
| COc1ccc(C)cc1[C@@]1(C(=O)NS(=O)(=O)c2cccc3nc(C)ccc23)C[C@H](c2ccccc2)CO1 [Example 33, (2R,4R)-2-(2-methoxy-5-methylphenyl)-N-(2-methylquinoline-5-sulfonyl)-4-phenyloxolane-2-carboxamide] | 264 % Dual | 20.1 nM | 1630 nM | 2300 nM | 756% | – |
| COc1ccc(C)cc1[C@]1(C(=O)NS(=O)(=O)c2cccc3nc(C)ccc23)C[C@@H](c2ccccc2)CO1 [Example 36, (2S,4S)-2-(2-methoxy-5-methylphenyl)-N-(2-methylquinoline-5-sulfonyl)-4-phenyloxolane-2-carboxamide] | 255 % Dual | 31 nM | 810 nM | 1590 nM | 443% | – |
| COc1ccc(C)cc1[C@]1(C(=O)NS(=O)(=O)c2cccc3nc(C)ccc23)C[C@H](c2ccccc2)CO1 [Example 37, (2S,4R)-2-(2-methoxy-5-methylphenyl)-N-(2-methylquinoline-5-sulfonyl)-4-phenyloxolane-2-carboxamide] | 305 % Dual | 38.3 nM | 3210 nM | 3630 nM | 217% | 573% |
| COc1ccccc1[C@H]1CO[C@@](C(=O)NS(=O)(=O)c2cccc3nc(C)ccc23)(c2cc(C)ccc2OC)C1 [Example 38, (2R,4S)-2-(2-methoxy-5-methylphenyl)-4-(2-methoxyphenyl)-N-(2-methylquinoline-5-sulfonyl)oxolane-2-carboxamide] | 244 % Dual | 14.1 nM | 330 nM | 980 nM | 679% | – |
| COc1ccccc1[C@@H]1CO[C@@](C(=O)NS(=O)(=O)c2cccc3nc(C)ccc23)(c2cc(C)ccc2OC)C1 [Example 39, (2R,4R)-2-(2-methoxy-5-methylphenyl)-4-(2-methoxyphenyl)-N-(2-methylquinoline-5-sulfonyl)oxolane-2-carboxamide] | 239 % Dual | 26.1 nM | 200 nM | 470 nM | 470% | – |
| COc1ccccc1[C@@H]1CO[C@@](C(=O)NS(=O)(=O)c2cccc3nc(N)ccc23)(c2cc(C)ccc2OC)C1 [Example 40, (2R,4R)—N-(2-aminoquinoline-5-sulfonyl)-2-(2-methoxy-5-methylphenyl)-4-(2-methoxyphenyl)oxolane-2-carboxamide] | 208 % Dual | 2.6 nM | 160 nM | 440 nM | 705% | – |
| COc1ccc(C)cc1[C@@]1(C(=O)NS(=O)(=O)c2cccc3nc(N)ccc23)C[C@H](c2ccccc2)CO1 [Example 41, (2R,4R)—N-(2-aminoquinoline-5-sulfonyl)-2-(2-methoxy-5-methylphenyl)-4-phenyloxolane-2-carboxamide] | 274 % Dual | 19.4 nM | 270 nM | 760 nM | 872% | – |
| COc1cccc([C@@H]2CO[C@@](C(=O)NS(=O)(=O)c3cccc4nc(C)ccc34)(c3cc(C)ccc3OC)C2)c1 [Example 42, (2R,4R)-2-(2-methoxy-5-methylphenyl)-4-(3-methoxyphenyl)-N-(2-methylquinoline-5-sulfonyl)oxolane-2-carboxamide] | 237 % Dual | 11.1 nM | 570 nM | 1120 nM | 751% | – |
| COc1ccc([C@@H]2CO[C@@](C(=O)NS(=O)(=O)c3cccc4nc(C)ccc34)(c3cc(C)ccc3OC)C2)cc1 [Example 44, (2R,4R)-2-(2-methoxy-5-methylphenyl)-4-(4-methoxyphenyl)-N-(2-methylquinoline-5-sulfonyl)oxolane-2-carboxamide] | 335 % Dual | 11.6 nM | 300 nM | 600 nM | 512% | – |
| COc1ccc([C@H]2CO[C@@](C(=O)NS(=O)(=O)c3cccc4nc(C)ccc34)(c3cc(C)ccc3OC)C2)cc1 [Example 45, (2R,4S)-2-(2-methoxy-5-methylphenyl)-4-(4-methoxyphenyl)-N-(2-methylquinoline-5-sulfonyl)oxolane-2-carboxamide] | 229 % Dual | 36.3 nM | 440 nM | 610 nM | 386% | 911% |
